Test systems include COLO 205 colon; EKVX NSCLC; MDA-MB-231 breast; RPMI-8226 leukemia; SF-295 CNS; SK-MEL-5 melanoma; SN12C renal; SR leukemia; T-47D breast; U251 CNS.
What all share (test): NCI-60 cell line screen, 48 h

Several values for one entry are separate records, joined by “and”; a condition that tells them apart may be missing. Identical values can stand only once.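 Grown in 96-well plates, cells were treated for 48 hours with each compound at five concentrations. Insufficient inhibition: endpoint recorded as highest concentration tested. Here, GI50 denotes the concentration required for 50% inhibition of growth. TGI marks complete inhibition of growth.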 Bounds are passed on as bounds.

In the case of `OC(C1CO1)C(O)C1CO1` (configuration not stated), the GI50 with COLO 205 colon was 124 µM; in the assay on EKVX NSCLC, 175 µM; with MDA-MB-231 breast, 63 µM; in the assay with RPMI-8226 leukemia, 84 µM; in the assay with SF-295 CNS, 11.9 µM and 1.59 µM; with SK-MEL-5 melanoma, 43.9 µM. In addition, the GI50 in the assay with SN12C renal is 13.9 µM; with U251 CNS it was 7.78 µM. For the same compound, the TGI in the assay on COLO 205 colon is 127 µM and 285 µM; in the assay on EKVX NSCLC it was 150 µM and 348 µM; with MDA-MB-231 breast, 69.6 µM and 377 µM; in the assay on RPMI-8226 leukemia it was 150 µM and 861 µM; in the assay on SF-295 CNS, 123 µM and 126 µM; with SK-MEL-5 melanoma, 85.6 µM and 164 µM. The TGI in the assay on SN12C renal is 126 µM and 249 µM; in the assay with SR leukemia, 72.2 µM and 528 µM; in the assay on T-47D breast, 150 µM and 425 µM; in the assay on U251 CNS, 114 µM and 168 µM.
For the compound `O=C1c2cc(-c3ccccc3)ccc2-c2c1c1ccc([N+](=O)[O-])cc1c(=O)n2CCCBr`, the GI50 in the assay with COLO 205 colon is over 50 µM; in the assay with EKVX NSCLC, over 50 µM; in the assay with MDA-MB-231 breast it was over 38.9 µM; with RPMI-8226 leukemia, over 32.8 µM; in the assay with SF-295 CNS, over 37.4 µM; in the assay with SK-MEL-5 melanoma, over 50 µM. For the same compound, the GI50 with SN12C renal is over 50 µM; in the assay on T-47D breast, over 50 µM; in the assay with U251 CNS, over 31.9 µM. The TGI in the assay with COLO 205 colon, with EKVX NSCLC, in the assay with MDA-MB-231 breast, in the assay on RPMI-8226 leukemia, with SF-295 CNS and with SK-MEL-5 melanoma was over 50 µM in each case. Further, the TGI in the assay on SN12C renal is over 50 µM; in the assay with SR leukemia, over 15.1 µM; with T-47D breast it was over 50 µM; with U251 CNS, over 50 µM.
As to `Cc1cccc(Cl)c1NC(=O)c1cnc(Nc2cc(N3CCOCC3)cc(N3CCOCC3)c2)s1`, the GI50 was 0.122 µM with COLO 205 colon; 0.213 µM in the assay with EKVX NSCLC; 0.0189 µM in the assay with MDA-MB-231 breast; over 6.24 µM in the assay with RPMI-8226 leukemia; 0.154 µM with SF-295 CNS; over 8.96 µM in the assay on SK-MEL-5 melanoma. The GI50 in the assay on SN12C renal was 0.0535 µM; with T-47D breast, 0.0368 µM; in the assay with U251 CNS, over 3.85 µM. Further, the TGI was over 8.09 µM in the assay with COLO 205 colon; over 10 µM with EKVX NSCLC; over 4.59 µM in the assay on MDA-MB-231 breast; over 10 µM with RPMI-8226 leukemia; over 10 µM in the assay on SF-295 CNS; over 10 µM in the assay on SK-MEL-5 melanoma. Moreover, the TGI in the assay on SN12C renal, with SR leukemia, in the assay with T-47D breast and in the assay on U251 CNS was over 10 µM each time.
In the case of `COc1cc(F)cc([C@@H](CO)NC(=O)[C@@H](C)N2Cc3ccc(-c4nc(NC5CCOCC5)ncc4Cl)cc3C2=O)c1`, the GI50 with COLO 205 colon is under 0.01 µM; in the assay with EKVX NSCLC it was 0.108 µM; with MDA-MB-231 breast, under 0.0175 µM; with RPMI-8226 leukemia, 1.83 µM; in the assay on SF-295 CNS, 14.7 µM; in the assay with SK-MEL-5 melanoma, 0.405 µM. The GI50 is 1.33 µM in the assay with SN12C renal, 10.8 µM in the assay with SR leukemia, 5.03 µM with T-47D breast and 8.72 µM with U251 CNS. The TGI came to 2.37 µM with COLO 205 colon; 66 µM in the assay on EKVX NSCLC; 18.7 µM in the assay on MDA-MB-231 breast; 38.1 µM in the assay with RPMI-8226 leukemia; 85.4 µM in the assay on SF-295 CNS; 14.8 µM in the assay on SK-MEL-5 melanoma. Further, the TGI in the assay with SN12C renal is over 100 µM; in the assay on SR leukemia, 70.7 µM; in the assay with T-47D breast, 33 µM; with U251 CNS it was over 100 µM.
Take `CC(=O)C1COC(O)C1C` (configuration not stated): the TGI was 34.5 µM in the assay with COLO 205 colon; over 100 µM in the assay with EKVX NSCLC; 68 µM in the assay with MDA-MB-231 breast; 60 µM in the assay with RPMI-8226 leukemia; 71.9 µM in the assay on SF-295 CNS; 29.7 µM in the assay with SK-MEL-5 melanoma. Also, the TGI is 50.6 µM in the assay on SN12C renal, 40.1 µM with SR leukemia, over 100 µM in the assay on T-47D breast and 58.2 µM with U251 CNS.
In the case of `COc1ccc2nc3cc([N+](=O)[O-])ccc3c(NCCCN(CCO)CCO)c2c1`, the GI50 with COLO 205 colon was 2.64 µM; with EKVX NSCLC, 7.48 µM; in the assay on MDA-MB-231 breast, 7.78 µM; with RPMI-8226 leukemia, 2.28 µM; in the assay on SF-295 CNS it was 9 µM; in the assay with SK-MEL-5 melanoma it was 1.8 µM. Further, the GI50 was 3.92 µM in the assay with SN12C renal, 1.97 µM with SR leukemia, 1.62 µM with T-47D breast and 3.57 µM with U251 CNS. Besides, the TGI with COLO 205 colon was 9.12 µM; with EKVX NSCLC, 18.4 µM; in the assay on MDA-MB-231 breast, 21.8 µM; with RPMI-8226 leukemia, 8.9 µM; with SF-295 CNS, 22.3 µM; in the assay with SK-MEL-5 melanoma, 4.69 µM. In addition, the TGI is 14.7 µM with SN12C renal, 14.3 µM in the assay with SR leukemia, 7.5 µM in the assay with T-47D breast and 13.4 µM with U251 CNS.
Take `NC(=S)N/N=C/c1ccc(O)cn1`: the GI50 is 35.8 µM and 55 µM and 8.96 µM in the assay on COLO 205 colon; 82.5 µM with EKVX NSCLC; 22.3 µM and 6.64 µM with RPMI-8226 leukemia; 33.7 µM and 31.7 µM in the assay with SF-295 CNS; 11.3 µM and 8.06 µM in the assay with SK-MEL-5 melanoma; 8.5 µM and 7.93 µM in the assay on SN12C renal. The GI50 in the assay on U251 CNS is 9.35 µM and 6.93 µM. In addition, the TGI with COLO 205 colon is > 1500 µM and 655 µM; with EKVX NSCLC, 210 µM; in the assay on MDA-MB-231 breast, over 427 µM; in the assay on RPMI-8226 leukemia, > 1500 µM and 662 µM; with SF-295 CNS it was 113 µM and 111 µM; in the assay with SN12C renal, 312 µM and 119 µM. In addition, the TGI was over 323 µM in the assay with SR leukemia; over 451 µM in the assay with T-47D breast; 391 µM and 602 µM in the assay with U251 CNS.
As for `O=C(NCCCCCCNC(=O)n1cc(F)c(=O)[nH]c1=O)NCCCOCCOCCOCCOCCOCCOCCOCCOCCOCCOCCOCCOCCOCCOCCOCCOCCOCCOCCOCCOCCOCCCNC(=O)C(O)C(O)C(OC1OC(CO)C(O)C(O)C1O)C(O)CO` (configuration not stated), the TGI in the assay with COLO 205 colon, with EKVX NSCLC, in the assay with MDA-MB-231 breast, with RPMI-8226 leukemia, in the assay on SF-295 CNS and with SK-MEL-5 melanoma was over 100 µM each time. For the same compound, the TGI in the assay on SN12C renal, in the assay with SR leukemia, with T-47D breast and in the assay with U251 CNS was over 100 µM throughout.

(Values after PubChem BioAssay (NCI).)
